According to PMC4575030 (PLoS ONE, 2015):
Counter-ions that a name gives are not always drawn. Like-named read-outs stand apart in the source and are kept apart here.

Key:
hNav1.7 = biological target: T1, hNav1.7 (Homo sapiens, UniProt Q15858); assay: Manual whole cell patch clamp electrophysiology on HEK 293 cells stably expressing hNav1.7; type: cell-based
T1 construct: expressed in transfected cells; host or cells: HEK 293
Protocol: Except as indicated, recordings to determine potency of aminotriazines on Nav1.7 were made with manual electrophysiology. HEK 293 cells stably expressing hNav1.7 were voltage-clamped using the whole cell patch clamp configuration. Cells were plated onto 35 mm culture dishes 0–24 hours before recording, and tissue culture medium was exchanged for external solution containing (in mM) 140 NaCl, 5 KCl, 2 CaCl2, 1 MgCl2, 10 HEPES, 11 glucose, pH 7.4 with NaOH. Patch pipettes were pulled from borosilicate glass capillaries (1.2 mm outer diameter, World Precision Instruments, Sarasota, FL) with a P-97 pipette puller (Sutter Instruments, Novato, CA) and backfilled with internal solution containing (in mM) 62.5 CsCl, 75 CsF, 2.5 MgCl2, 5 EGTA, 10 HEPES, pH 7.25 with CsOH. Pipette resistances were between 1.5 and 2.0 MΩ. After formation of the whole-cell configuration, cells were lifted off the dish bottom with the patch pipette and positioned directly in front of a microarray of glass tubes (each tube internal diameter ~ 1 mm) with each tube containing continuously flowing control or test solution. A full current-voltage relation was recorded from each cell, and cells with poor space clamp as indicated by discontinuous I-V relation or by prolonged or nonexponential current kinetics were discarded. Solution switching was accomplished by moving the microarray with computer control via an RSC-160 rapid solution exchanger (Bio-Logic, Claix, France). Currents were recorded with an Axopatch 200B patch-clamp amplifier driven by pCLAMP software, filtered (4-pole Bessel) at 5 kHz during acquisition, and digitized at 20 kHz using pClamp9.2. Whole cell capacitance and series resistance were compensated at 0%- 80%, and reported voltages were uncorrected for liquid junction potentials. Recordings were made at room temperature. Concentration-response curves were taken by measuring inward Nav1.7 current every five to six seconds with a 10 ms to 20 ms depolarization to near the peak of the current-voltage relation, before and after steady-state inhibition by a given concentration of aminotriazine. For concentration response curves on partially inactivated channels, holding voltage was set to produce 20% fractional inactivation. […] Occasionally two compound concentrations were tested in parallel without resetting the voltage, if inhibition was rapid and the current level steady. […] Concentration response curves on non-inactivated channels generally were taken with multiple concentrations added in series without washoff of the previous concentration.

rat Nav1.7 = rat Nav1.7 (Rattus norvegicus, UniProt O08562); assay: PatchXpress automated electrophysiology on rat Nav1.7; type: cell-based; conditions: 20%-inactivated rat Nav1.7
Chain of rat Nav1.7 (O08562 whole entry): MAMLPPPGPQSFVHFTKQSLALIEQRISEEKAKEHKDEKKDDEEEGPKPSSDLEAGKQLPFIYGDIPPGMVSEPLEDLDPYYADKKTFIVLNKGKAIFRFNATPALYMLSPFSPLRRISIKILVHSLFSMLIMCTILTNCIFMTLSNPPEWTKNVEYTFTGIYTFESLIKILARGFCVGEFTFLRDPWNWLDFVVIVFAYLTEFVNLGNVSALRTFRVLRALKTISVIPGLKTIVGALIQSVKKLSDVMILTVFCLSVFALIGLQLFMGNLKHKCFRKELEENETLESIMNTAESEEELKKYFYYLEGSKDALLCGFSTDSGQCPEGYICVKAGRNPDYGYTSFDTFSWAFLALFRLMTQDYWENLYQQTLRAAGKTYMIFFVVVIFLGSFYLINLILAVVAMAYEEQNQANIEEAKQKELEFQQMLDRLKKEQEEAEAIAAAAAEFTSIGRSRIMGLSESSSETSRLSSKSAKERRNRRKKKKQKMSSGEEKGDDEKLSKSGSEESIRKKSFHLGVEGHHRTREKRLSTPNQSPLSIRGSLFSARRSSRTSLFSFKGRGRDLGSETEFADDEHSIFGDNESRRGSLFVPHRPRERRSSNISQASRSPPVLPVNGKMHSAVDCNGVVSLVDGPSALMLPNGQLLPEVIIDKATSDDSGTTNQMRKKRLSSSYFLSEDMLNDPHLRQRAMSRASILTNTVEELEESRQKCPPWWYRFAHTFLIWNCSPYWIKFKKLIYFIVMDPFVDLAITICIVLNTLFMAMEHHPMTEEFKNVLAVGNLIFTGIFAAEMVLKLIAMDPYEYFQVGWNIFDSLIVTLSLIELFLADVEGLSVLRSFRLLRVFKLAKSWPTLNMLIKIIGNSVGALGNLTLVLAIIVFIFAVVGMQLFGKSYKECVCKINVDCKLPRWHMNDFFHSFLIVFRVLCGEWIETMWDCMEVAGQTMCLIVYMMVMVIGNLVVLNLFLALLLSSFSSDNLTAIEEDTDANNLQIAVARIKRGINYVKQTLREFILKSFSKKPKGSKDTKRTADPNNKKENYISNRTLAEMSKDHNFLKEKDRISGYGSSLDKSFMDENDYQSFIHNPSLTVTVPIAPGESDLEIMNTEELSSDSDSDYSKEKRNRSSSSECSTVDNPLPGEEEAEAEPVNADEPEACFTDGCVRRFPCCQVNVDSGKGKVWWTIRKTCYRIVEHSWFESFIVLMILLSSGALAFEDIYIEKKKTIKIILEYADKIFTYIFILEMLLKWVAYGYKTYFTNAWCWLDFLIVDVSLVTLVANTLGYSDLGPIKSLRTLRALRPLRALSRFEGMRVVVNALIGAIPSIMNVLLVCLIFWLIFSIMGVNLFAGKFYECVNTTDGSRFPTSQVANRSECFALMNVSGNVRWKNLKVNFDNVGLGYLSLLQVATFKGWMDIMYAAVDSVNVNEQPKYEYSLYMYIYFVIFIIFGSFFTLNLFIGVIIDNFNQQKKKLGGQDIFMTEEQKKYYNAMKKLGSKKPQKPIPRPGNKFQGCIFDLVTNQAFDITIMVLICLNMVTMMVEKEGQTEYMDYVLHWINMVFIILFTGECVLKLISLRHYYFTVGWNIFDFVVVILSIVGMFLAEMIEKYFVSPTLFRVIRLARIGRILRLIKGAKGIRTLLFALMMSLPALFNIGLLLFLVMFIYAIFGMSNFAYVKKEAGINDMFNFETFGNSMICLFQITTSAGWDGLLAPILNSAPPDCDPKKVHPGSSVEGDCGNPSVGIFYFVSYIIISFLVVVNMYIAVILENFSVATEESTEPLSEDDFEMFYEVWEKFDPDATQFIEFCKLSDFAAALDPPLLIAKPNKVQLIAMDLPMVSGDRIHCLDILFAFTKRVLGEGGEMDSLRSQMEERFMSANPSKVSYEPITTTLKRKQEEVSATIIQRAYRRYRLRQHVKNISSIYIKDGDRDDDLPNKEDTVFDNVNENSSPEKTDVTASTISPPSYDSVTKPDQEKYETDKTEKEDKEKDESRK

[1] = In vitro plasma protein binding; type: in vitro ADME
[2] = Terminal plasma and brain concentrations after behavioral testing; type: in vivo, rat
[3] = tested on: rat formalin model of pain; assay: Formalin test (formalin-induced flinching); type: in vivo; conditions: for Decrease in formalin flinching: phase 2 (10 to 40 min), percent of vehicle; for Reduction in formalin flinching, result in words: rat formalin test
Protocol: Formalin-induced flinching was measured using the Automated Nociception Analyzer (ANA) (University Anesthesia Research & Development Group, La Jolla, CA). Rats were habituated to the ANA testing chambers for at least 30 minutes prior to the formalin injection. At test time, each rat was removed from the testing chamber and gently wrapped in a towel. 50 μL of 2.5% formalin solution was injected into the dorsal surface of the left hind paw with a 30 gauge needle. A small metal band was then affixed to the plantar side of the injected paw with one drop of super glue. The animal was then unwrapped from the towel, placed back in the testing chamber, and flinching behavior was scored for 40 minutes by the ANA software. While minimized, non-painful paw movement from the natural activity of an alert animal could be erroneously binned by the automated recording system as a nociceptive behavior. These behaviors are not subtracted from the flinching total. […] Total flinching behavior was used as the endpoint of the assay.

naïve rats = assay: Open field activity (basic movement); type: in vivo, rat; conditions: formalin-naïve rats
Protocol: Basic movement was measured using the Photobeam Activity System Open Field (San Diego Instruments, San Diego, CA) equipped with 48 infrared photocell emitters and detectors. Photobeams used to measure vertical movement were positioned 14 cm above the test chamber floor. Each testing chamber was made of Plexiglas (41 x 41 x 36 cm) and was devoid of any bedding. At the beginning of the test session, each animal was placed in a separate testing chamber and the room lights were turned off. Basic movement was measured for 30 minutes.

[4] = tested on: rat spinal nerve ligation model; assay: Tactile allodynia following spinal nerve ligation (SNL); type: in vivo; conditions: gabapentin positive control, 75 min after dosing; statistically significant
Source text: A decrease in tactile response threshold, using calibrated von Frey filaments (Stoelting Co., Wood Dale, IL), was used as a measure of tactile allodynia following spinal nerve ligation (SNL). Prior to surgery, each animal underwent baseline testing to determine suitability for the assay. Briefly, animals were placed on a raised platform with a grid meshed floor. The distance between the mesh was ¼”. Once acclimated, each animal received a series of trials according to the up-down method described by Dixon. Animals showing a response to less than 4 g were deemed already sensitive to the stimulus and were removed. A maximal fiber of 15 g was employed as a cut-off threshold. Surgery was then performed with a procedure slightly modified by that reported by Kim and Chung. Briefly, the left L5 spinal nerve was carefully isolated from the surrounding tissue. Using 5–0 silk suture, a tight ligature was placed around L5 nerve. Muscle and skin were then closed using 4–0 absorbable suture and wound clips. Animals were allowed to recover and were carefully monitored for seven days to ensure proper healing and ensure there was no mutilation of the affected limb. On day 21 post-surgery, animals were again tested to ensure the development of tactile allodynia. […] Animals were then randomized into groups and dosed with the test compound, gabapentin, or vehicle and assessed as stated above. […]

rat CFA model of pain = assay: CFA-induced thermal hyperalgesia; type: in vivo; conditions: morphine s.c., 30 min after dosing, positive control
Protocol: CFA-induced thermal hyperalgesia was measured using the Thermal Plantar Analgesia Instrument (Ugo Basile, Italy). Intensity of the radiant heat stimulus was adjusted to achieve a withdrawal latency of approximately 13 s in naïve animals. On test day one, animals were placed on the apparatus in their individual testing chambers with an absorbent towel at the bottom and allowed to habituate for at least 30 minutes. The towel was then removed and animals were allowed to acclimate for at least 15 minutes more. After habituation, animals were placed back in their home cages until the following day. On test day two, animals were placed back in the testing chambers until calm (typically 20 minutes). The thermal device was positioned on the center of the left hind paw and the test was started. The time for the animal to withdraw its paw from the thermal stimulus was recorded. A cut-off of 30 seconds was used to prevent tissue damage. Few trials went past 20 seconds and none past 25 seconds. This procedure was repeated for three trials per animal, each separated by at least 5 min, and trials were averaged to determine baseline withdrawal latencies. After determining baseline measures, each animal received an injection of 50 μl CFA (1:1 emulsion with PBS, Sigma, St. Louis, MO) into the plantar side of the left hind paw with a 26 gauge needle. Animals were then placed back in their home cages until the following day. Approximately 24 h after the CFA injection, withdrawal latencies to heat were determined as described above. Animals were then randomized based on their Post-CFA baseline score and treated with the test compound or vehicle. […] The experimenter was blinded to drug treatment during this assay. Percent return to baseline latency was used as the endpoint of the assay.

T1 sequence (Q15858 whole entry): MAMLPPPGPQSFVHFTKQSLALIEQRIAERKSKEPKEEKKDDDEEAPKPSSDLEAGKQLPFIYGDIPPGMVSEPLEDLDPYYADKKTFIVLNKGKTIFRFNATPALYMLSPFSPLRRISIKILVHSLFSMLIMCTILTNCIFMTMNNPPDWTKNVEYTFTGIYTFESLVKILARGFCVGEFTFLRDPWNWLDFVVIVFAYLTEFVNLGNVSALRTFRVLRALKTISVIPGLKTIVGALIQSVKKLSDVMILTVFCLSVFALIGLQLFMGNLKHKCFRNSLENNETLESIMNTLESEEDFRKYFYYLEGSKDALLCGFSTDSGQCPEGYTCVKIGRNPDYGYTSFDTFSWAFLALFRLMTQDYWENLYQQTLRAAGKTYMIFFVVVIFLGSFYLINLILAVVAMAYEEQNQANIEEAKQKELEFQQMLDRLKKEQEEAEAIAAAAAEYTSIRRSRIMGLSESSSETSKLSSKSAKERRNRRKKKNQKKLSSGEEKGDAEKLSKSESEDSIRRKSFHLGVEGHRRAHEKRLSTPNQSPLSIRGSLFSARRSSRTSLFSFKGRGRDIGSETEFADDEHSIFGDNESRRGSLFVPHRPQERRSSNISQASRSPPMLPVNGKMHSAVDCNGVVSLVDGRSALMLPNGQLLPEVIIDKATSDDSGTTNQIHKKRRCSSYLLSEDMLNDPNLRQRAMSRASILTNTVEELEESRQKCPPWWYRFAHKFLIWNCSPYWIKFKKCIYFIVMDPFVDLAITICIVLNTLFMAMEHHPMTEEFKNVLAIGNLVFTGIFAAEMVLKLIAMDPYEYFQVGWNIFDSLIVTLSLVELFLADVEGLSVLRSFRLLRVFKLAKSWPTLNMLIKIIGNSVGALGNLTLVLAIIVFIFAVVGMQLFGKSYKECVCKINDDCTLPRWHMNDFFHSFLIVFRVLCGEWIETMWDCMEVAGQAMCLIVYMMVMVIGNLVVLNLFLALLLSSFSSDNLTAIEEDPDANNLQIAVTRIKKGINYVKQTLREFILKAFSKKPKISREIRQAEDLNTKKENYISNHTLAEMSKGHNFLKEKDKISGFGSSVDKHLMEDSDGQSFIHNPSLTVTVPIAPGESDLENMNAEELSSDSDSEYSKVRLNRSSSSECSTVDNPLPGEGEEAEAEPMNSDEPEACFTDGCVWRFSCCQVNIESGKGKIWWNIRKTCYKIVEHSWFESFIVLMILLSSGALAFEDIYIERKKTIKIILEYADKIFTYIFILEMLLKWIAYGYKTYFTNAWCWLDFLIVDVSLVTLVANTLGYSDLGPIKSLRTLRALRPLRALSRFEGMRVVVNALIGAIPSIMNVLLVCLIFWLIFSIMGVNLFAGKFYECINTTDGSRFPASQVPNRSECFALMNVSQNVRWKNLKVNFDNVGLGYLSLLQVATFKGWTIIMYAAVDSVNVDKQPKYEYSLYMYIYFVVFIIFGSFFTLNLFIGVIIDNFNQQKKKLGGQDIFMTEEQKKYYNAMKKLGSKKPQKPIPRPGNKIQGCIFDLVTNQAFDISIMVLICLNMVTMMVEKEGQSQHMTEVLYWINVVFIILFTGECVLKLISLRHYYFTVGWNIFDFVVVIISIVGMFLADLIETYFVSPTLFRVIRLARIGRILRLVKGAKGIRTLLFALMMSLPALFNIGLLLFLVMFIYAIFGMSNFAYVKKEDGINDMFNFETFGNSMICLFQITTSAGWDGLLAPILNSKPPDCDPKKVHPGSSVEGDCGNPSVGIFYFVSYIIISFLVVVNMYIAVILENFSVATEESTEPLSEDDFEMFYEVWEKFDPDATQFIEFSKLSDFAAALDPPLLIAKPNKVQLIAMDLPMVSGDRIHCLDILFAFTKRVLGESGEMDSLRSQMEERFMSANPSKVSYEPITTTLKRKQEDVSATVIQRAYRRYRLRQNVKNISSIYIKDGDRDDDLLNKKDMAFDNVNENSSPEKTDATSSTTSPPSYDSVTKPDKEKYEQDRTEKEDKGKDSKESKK

## CC(=O)Nc1cccc(Nc2ncnc(N3CCc4cc(OC(F)(F)F)ccc4C3)n2)c1 [Compound F, N-(3-((4-(6-(trifluoromethoxy)-3,4-dihydro-2(1H)-isoquinolinyl)-1,3,5-triazin-2-yl)amino)phenyl)acetamide]
hNav1.7; IC50 (μM) 20%-inactivated, 20%-inactivated human Nav1.7, holding voltage set to produce 20% fractional inactivation
  IC50: 0.18 µM
hNav1.7; non-inactivated human Nav1.7, holding voltage -140 mV or occasionally -120 mV, peak concentration tested 10 μM, read-out: IC50 (μM) Non-inactivated
  IC50: > 10 µM
Rat Nav1.7
  IC50: 1000 nM
[1]
  fraction unbound: 0.001
[2]; brain and plasma, rat, ratio of concentrations measured following the formalin test
  Kp: 0.33
[2]; mean terminal plasma concentration at the lowest effective dose in the rat formalin test
  Effective [plasma]: 3.70 µM
[3]; 10 mg/kg p.o.
  Decrease in formalin flinching: 0%
[3]; 30 mg/kg p.o.
  Decrease in formalin flinching: 35%
[3]; 100 mg/kg p.o.
  Decrease in formalin flinching: 67%
[3]; rat formalin model, significant (p < 0.05) decrease in flinching at a dose without a reduction in open field movement that obviated the result
  Analgesic efficacy: Yes
[3]
  Reduction in formalin flinching, result in words: statistically significant and plasma concentration-dependent reduction in formalin flinching
naïve rats; 10 mg/kg p.o., negative value = increase
  Decrease in basic movement: 11%
naïve rats; 30 mg/kg p.o.
  Decrease in basic movement: 33%
naïve rats; 100 mg/kg p.o.
  Decrease in basic movement: 54%

## NCC1(CC(=O)O)CCCCC1 [gabapentin, reference compound]
[4]
  Reversal of tactile allodynia compared to the vehicle group: 44%

## CN1CC[C@]23c4c5ccc(O)c4O[C@H]2[C@@H](O)C=C[C@H]3[C@H]1C5 [morphine, Morphine sulfate, reference compound]
[3]; morphine 2 mg/kg s.c., positive control
  Total reduction in phase 2 flinching as percent of vehicle: 68%
[3]
  Reduction in formalin flinching, result in words: statistically significant decrease in flinching compared to the vehicle group
Rat CFA model of pain
  Average reversal of thermal hyperalgesia compared to baseline: 87%
